# pKd: −log10 of the molar value. “Also recorded” adds a separate entry of the source.
# What was measured:
# 5α reductase type 1 = molecular target: T1, 5α reductase type 1 (Homo sapiens, UniProt P18405); experiment: 5α reductase inhibition test in CHO 1827 cells; type: cell-based; conditions: 10^−9 to 10^−5 M
# T1 construct: host or cells: CHO 1827
# T1 sequence (P18405 1-259): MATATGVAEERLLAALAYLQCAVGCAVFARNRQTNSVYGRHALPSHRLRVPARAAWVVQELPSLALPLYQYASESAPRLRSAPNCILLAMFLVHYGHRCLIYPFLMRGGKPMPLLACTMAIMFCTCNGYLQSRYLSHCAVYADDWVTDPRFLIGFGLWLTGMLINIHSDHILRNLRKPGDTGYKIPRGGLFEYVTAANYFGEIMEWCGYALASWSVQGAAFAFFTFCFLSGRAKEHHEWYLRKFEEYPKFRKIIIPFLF
# Method: (§1) CHO-1827 and CHO-1829 cells, transfected with 5α reductase type 1 (5αR-1) or type 2 (5αR-2), respectively (see Steers W. Urology (2001) 58 p 17-24), were maintained in Ham's F12 medium supplemented with 5% FCS.
# (§2) 5α reductase inhibition assay was performed using CHO 1827 cells, transfected with 5αR-1, or CHO 1829 cells, transfected with 5αR-2, as described (see Guarna A, et al. Journal of Medicinal Chemistry (2000) 43 3718-3735.). Compound A was added in a concentration range from 10^−9 to 10^−5 M, using finasteride as a control inhibitor in each experiment.
# 5α reductase type 2 = molecular target: T2, 5α reductase type 2 (Homo sapiens, UniProt P31213); experiment: 5α reductase inhibition test in CHO 1829 cells; type: cell-based; conditions: 10^−9 to 10^−5 M
# T2 construct: host or cells: CHO 1829
# T2 sequence (P31213 1-254): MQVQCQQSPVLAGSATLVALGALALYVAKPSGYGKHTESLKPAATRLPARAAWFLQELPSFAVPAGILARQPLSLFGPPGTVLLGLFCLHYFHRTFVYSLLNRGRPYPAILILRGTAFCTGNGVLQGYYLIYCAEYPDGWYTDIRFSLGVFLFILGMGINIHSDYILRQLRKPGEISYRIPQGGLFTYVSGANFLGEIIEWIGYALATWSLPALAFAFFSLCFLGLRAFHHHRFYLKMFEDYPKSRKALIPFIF
# Method: as §1, §2
# [1] = Serum calcium measurement in rats; type: in vivo, rat; conditions: for calcemia: T-replaced castrated rats
# Method: Male Sprague Dawley rats (28 days old) were purchased from Charles River Laboratories (Calco, Lecco, Italy). All animal experimentation described was conducted in accord with accepted standards of animal care. Castration was performed via the scrotal route under ketamine/xylazine anaesthesia.
# Serum calcium levels were measured with a commercially available colorimetric assay (Sigma), according to the manufacturers' instructions.
# prostate = experiment: 9-month toxicity study in male beagle dogs (prostate weight); type: in vivo, dog
# Method: A 9-month toxicity study was carried out in four groups of male beagle dogs, which were treated by daily oral gavage with 0.5 μg, 1.5 μg and 5 μg/kg body weight/day of Compound A (in vehicle Miglyol 812) or with vehicle alone. This treatment was followed by a 2-month recovery period for the group receiving the highest dose, 5 μg, after which prostate weights was measured.
# rat ventral prostate = experiment: Ventral prostate growth in intact adult rats
# From the text: Rat ventral prostate glands were rapidly excised out, weighed and quickly frozen in dry ice.
# AR = molecular target: T3, AR (Homo sapiens, UniProt P10275); experiment: [3H]R1881 binding assay on cytosol fractions of BPH fragments; set-up: from tissue; host or cells: human BPH prostatic tissue, cytosol fraction
# T3 sequence (P10275 1-920): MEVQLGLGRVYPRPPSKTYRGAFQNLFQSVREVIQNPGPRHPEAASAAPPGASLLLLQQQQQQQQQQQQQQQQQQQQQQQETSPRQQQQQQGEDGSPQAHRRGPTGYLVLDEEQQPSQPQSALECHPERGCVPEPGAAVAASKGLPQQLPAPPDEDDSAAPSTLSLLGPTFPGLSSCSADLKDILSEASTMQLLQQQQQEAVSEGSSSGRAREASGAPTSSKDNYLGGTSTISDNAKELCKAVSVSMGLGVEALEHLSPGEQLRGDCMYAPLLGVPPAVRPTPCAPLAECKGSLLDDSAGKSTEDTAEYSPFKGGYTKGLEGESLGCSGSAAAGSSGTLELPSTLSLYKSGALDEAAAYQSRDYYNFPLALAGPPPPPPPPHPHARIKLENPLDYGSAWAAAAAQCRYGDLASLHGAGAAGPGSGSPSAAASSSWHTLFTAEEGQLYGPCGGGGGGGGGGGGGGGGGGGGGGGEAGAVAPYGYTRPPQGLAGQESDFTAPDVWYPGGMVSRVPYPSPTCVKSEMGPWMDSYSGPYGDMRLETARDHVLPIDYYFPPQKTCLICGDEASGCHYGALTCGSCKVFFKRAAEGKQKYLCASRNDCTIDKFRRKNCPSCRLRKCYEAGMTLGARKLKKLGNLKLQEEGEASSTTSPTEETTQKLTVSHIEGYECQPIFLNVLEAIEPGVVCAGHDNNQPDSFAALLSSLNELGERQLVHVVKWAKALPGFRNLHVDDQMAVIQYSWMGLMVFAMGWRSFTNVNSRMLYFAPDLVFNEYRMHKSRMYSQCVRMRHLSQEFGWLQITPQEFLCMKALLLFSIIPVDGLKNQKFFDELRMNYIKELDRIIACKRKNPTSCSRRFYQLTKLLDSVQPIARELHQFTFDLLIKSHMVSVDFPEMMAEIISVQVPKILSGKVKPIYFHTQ
# Method: Prostatic tissues for binding assay were obtained from patients who underwent suprapubic adenomectomy for BPH. No pharmacological treatment was performed in the 3 months preceding surgery. After surgery, the tissues were immediately placed in liquid nitrogen and stored at −80° C. until processing.
# Protein content was determined by the known method of Bradford, using BSA as a standard.
smiles,measurement,setting,value
"C=C1/C(=C\C=C2/CCC[C@]3(C)C([C@@H](C)C/C=C/C(O)(CC)CC)=CC[C@@H]23)C[C@@H](O)C[C@@H]1F [Compound A, 1-alpha-fluoro-25-hydroxy-16,23E-diene-26,27-bishomo-20-epi-cholecalciferol]",interference with 5α reductase type 1,5α reductase type 1,did not interfere with either isoenzyme up to the micromolar range
same,interference with 5α reductase type 2,5α reductase type 2,did not interfere with either isoenzyme up to the micromolar range
same,calcemia,[1]; 10 μg/Kg,10.16 ± 0.24 mg/dL
same,calcemia,[1]; 30 μg/Kg,9.87 ± 0.15 mg/dL
same,calcemia,[1]; 100 μg/Kg,10.55 ± 0.18 mg/dL
same,calcemia,[1]; 300 μg/Kg,10.85 ± 0.1 mg/dL
same,other side effects,"[1]; all rat protocols, oral",No other discernible side effects
same,hypercalcemia,"[1]; all rat protocols, oral 10-300 μg/Kg",very modest hypercalcemia only at the highest dose tested
same,prostate weight after recovery,"prostate; 5 μg/kg/day 9 months then 2-month recovery, vs vehicle",reduction of prostate weight
same,toxicity data,prostate; 9 months daily oral gavage,entirely favourable toxicity data
same,prostate weight at end of treatment,"prostate; 9 months daily oral gavage, 0.5, 1.5, 5 μg/kg/day, vs vehicle",lower prostate weight; also recorded: clear reduction of prostate weight
same,maximal reduction of ventral prostate weight,"rat ventral prostate; one month oral, 300 μg/Kg",30%
same,effect on ventral prostate weight,"rat ventral prostate; one-month oral treatment, 10-300 μg/Kg",significantly decreased
same,pKd,AR,< 4.00
same,competition for [3H]-R1881 binding,"AR; human BPH homogenates, 10^−10-10^−4 M",did not compete
